This is an account of results in publication PMC8605905 (Oxidative Medicine and Cellular Longevity, 2021).

In data set [1] the target is T1, ΔK280 tauRD protein (Homo sapiens, UniProt P10636, DEL597-597).
T1 construct: E. coli-derived ΔK280 tauRD protein; made in house; host or cells: E. coli
In words: Thioflavin T assay of ΔK280 tauRD aggregation. The class given is biochemical. The settings on record: ΔK280 tauRD 20 μM, compound 1–10 μM, 37°C 48 h; read-out: ΔK280 tauRD aggregation inhibition EC50 (Thioflavin T). How it is done:
The potential of Congo red and coumarin-chalcone derivatives in inhibiting tau misfolding was assessed using the E. coli-derived ΔK280 tauRD protein [21]. In brief, ΔK280 tauRD protein (20 μM) was incubated with the tested compound (1−10 μM) in buffer (150 mM NaCl, 20 mM Tris-HCl (pH 8.0)) at 37°C for 48 h to form aggregates. Thioflavin T (5 μM) was then added, and the mixture was incubated at room temperature for 25 min. The fluorescence intensity of the samples was measured, and the EC50 was computed as described.

A short description of data set [2]: physchem. The settings on record: aqueous buffer. The class given is physicochemical. How it is done:
The coumarin-chalcone derivatives (E)-4-hydroxy-3-(3-(p-tolyl)acryloyl)-2H-chromen-2-one (LM-016), (E)-3-(3-(4-(dimethylamino)phenyl)acryloyl)-4-hydroxy-2H-chromen-2-one (LM-021), and (E)-3-(3-(furan-2-yl)acryloyl)-4-hydroxy-2H-chromen-2-one (LM-022) were synthesized in our laboratory as previously described and examined by using NMR spectroscopy. The LM-016, LM-021, and LM-022 stayed soluble in cell culture medium at concentrations up to 100 μM.

Data set [3] deals with ∆K280 tauRD-DsRed SH-SY5Y cells. In words: ROS assay (DCFH-DA) in ΔK280 tauRD-DsRed cells. Type of data set: cell-based, Human. The settings on record: 10 μM. How it is done: On day 1, Aβ-GFP or ∆K280 tauRD-DsRed SH-SY5Y cells were seeded into 96-well plates (2.5 × 10^4/well) and treated with retinoic acid (10 μM; Sigma-Aldrich) to prompt neuronal differentiation. […] On day 8, cells were stained with Hoechst 33342 (0.1 μg/ml; Sigma-Aldrich) for 30 min, and cell images were automatically captured at excitation/emission wavelengths of 482/[…] (GFP fluorescence) or 543/593 nm (DsRed fluorescence) using a high content analysis (HCA) system (Micro Confocal High-Content Imaging System). Image Acquisition and Analysis Software (MetaXpress) (Molecular Devices, Sunnyvale, CA, USA) was used to analyse the images. CellROX Orange (5 μM; Molecular Probes, Eugene, OR, USA) (for Aβ-GFP cells) or dichloro-dihydro-fluorescein diacetate (DCFH-DA, 10 μM; Invitrogen) (for ∆K280 tauRD-DsRed cells) was added to the cells and incubated at 37°C for 30 min. The HCA system was used to measure intracellular ROS at 531/593 nm (CellROX Orange fluorescence) or 482/536 nm (DCFH-DA fluorescence) of excitation/emission wavelengths.

Data set [4] concerns the target T2, Aβ42 peptide (Homo sapiens, UniProt P05067).
T2 construct: containing Aβ42 peptide (5 μM); purchased AnaSpec; host or cells: synthetic
Description: Thioflavin T assay of Aβ aggregation. The class given is biochemical. The conditions noted are these: Aβ42 5 μM, compound 5–20 μM, 37°C 48 h; read-out: Aβ aggregation inhibition EC50 (Thioflavin T). How it is done: In brief, the tested compound (5–20 μM) was added to a buffer solution (150 mM NaCl, 20 mM Tris-HCl (pH 8.0)) containing Aβ42 peptide (5 μM) and incubated at 37°C for 48 h. Thioflavin T (10 μM) (Sigma-Aldrich) then was added, and the mixture was incubated for 5 min at room temperature. Subsequently, the fluorescence intensity was quantified at 420/485 nm of excitation/emission wavelengths using a FLx800 microplate reader (Bio-Tek, Winooski, VT, USA). EC50 was computed as described.

Data set [5] deals with Aβ-GFP SH-SY5Y cells. Description: High content analysis of Aβ-GFP fluorescence. The class given is cell-based, Human. How it is done:
Human neuroblastoma SH-SY5Y-derived Aβ-GFP [23] and ∆K280 tauRD-DsRed cells were kept in DMEM/nutrient mixture F12 (DMEM/F12) containing 10% FBS, 5 μg/ml blasticidin, and 100 μg/ml hygromycin (InvivoGen, San Diego, CA, USA). Doxycycline (Sigma-Aldrich) was applied to induce the expression of Aβ-GFP (5 μg/ml doxycycline) or ∆K280 tauRD-DsRed (2 μg/ml doxycycline).
On day 1, Aβ-GFP or ∆K280 tauRD-DsRed SH-SY5Y cells were seeded into 96-well plates (2.5 × 10^4/well) and treated with retinoic acid (10 μM; Sigma-Aldrich) to prompt neuronal differentiation. […] Image Acquisition and Analysis Software (MetaXpress) (Molecular Devices, Sunnyvale, CA, USA) was used to analyse the images. CellROX Orange (5 μM; Molecular Probes, Eugene, OR, USA) (for Aβ-GFP cells) or dichloro-dihydro-fluorescein diacetate (DCFH-DA, 10 μM; Invitrogen) (for ∆K280 tauRD-DsRed cells) was added to the cells and incubated at 37°C for 30 min.

T2 sequence (P05067 672-713 limits assumed): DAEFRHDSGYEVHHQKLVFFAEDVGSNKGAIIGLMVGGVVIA
T1 sequence (P10636 with tags, fused parts or gaps DEL597-597): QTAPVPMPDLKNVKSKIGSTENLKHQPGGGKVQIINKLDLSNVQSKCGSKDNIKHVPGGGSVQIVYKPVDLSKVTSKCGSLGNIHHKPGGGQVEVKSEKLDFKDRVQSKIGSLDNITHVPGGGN

`CN(C)c1ccc(/C=C/C(=O)c2c(O)c3ccccc3oc2=O)cc1` [LM-021, (E)-3-(3-(4-(dimethylamino)phenyl)acryloyl)-4-hydroxy-2H-chromen-2-one]: the EC50 in data set [1] is 10 µM; in data set [4], 14 µM; in data set [5] (Homo sapiens, Aβ-GFP SH-SY5Y cells, tested 1.2–5 μM, read-out: EC50 in Aβ aggregation inhibition (GFP fluorescence)) it was 5.1 µM. In data set [2], this molecule displayed a solubility of no less than 100 µM. The “ROS level elevated by ∆K280 tauRD overexpression” value in data set [3] is on record as “effectively reduced”. Moreover, the “Toxicity in SH-SY5Y cells” value in data set [5] (Aβ-GFP and ΔK280 tauRD-DsRed SH-SY5Y cells (Figures 3 and 4)) is given as “low toxicity”. In data set [5] (tested 1.2–5 μM, day 8), the “Concentration significantly augmenting green fluorescence intensity (Aβ-GFP)” value is 1.2 to 5 µM.
